Here are results for 18 compounds from patent US10239873B2, “7-azaindole or 4,7-diazaindole derivatives as IKKϵ epsilon and TBK1 inhibitor and pharmaceutical composition comprising same” (GREEN CROSS CORPORATION, priority 2015, dated 2019).

The target in one assay is T1, IKKε (Homo sapiens, UniProt Q14164).
T1 construct: purchased Promega and/or Invitrogen V4158; PR8031B; V3991 (not assigned to the two kinases)
T1 sequence (Q14164 1-716): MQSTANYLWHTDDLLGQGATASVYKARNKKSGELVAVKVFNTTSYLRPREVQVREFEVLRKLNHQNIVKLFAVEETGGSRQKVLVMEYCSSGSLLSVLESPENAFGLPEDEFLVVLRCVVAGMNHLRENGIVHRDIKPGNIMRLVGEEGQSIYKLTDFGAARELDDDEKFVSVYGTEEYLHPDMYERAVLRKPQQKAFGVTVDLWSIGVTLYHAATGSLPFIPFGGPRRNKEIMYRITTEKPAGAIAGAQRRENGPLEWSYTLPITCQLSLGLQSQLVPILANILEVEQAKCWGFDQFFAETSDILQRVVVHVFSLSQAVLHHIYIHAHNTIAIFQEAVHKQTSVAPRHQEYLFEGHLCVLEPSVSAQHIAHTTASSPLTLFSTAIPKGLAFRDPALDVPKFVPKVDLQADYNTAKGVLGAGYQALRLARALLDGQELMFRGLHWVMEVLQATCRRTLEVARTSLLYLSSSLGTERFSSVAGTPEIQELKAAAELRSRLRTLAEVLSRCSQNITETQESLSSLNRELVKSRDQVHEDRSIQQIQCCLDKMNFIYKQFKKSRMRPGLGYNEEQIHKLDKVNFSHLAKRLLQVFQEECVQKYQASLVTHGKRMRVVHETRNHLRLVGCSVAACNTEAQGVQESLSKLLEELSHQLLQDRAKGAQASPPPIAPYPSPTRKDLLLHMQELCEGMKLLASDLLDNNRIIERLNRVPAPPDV
Nature of the assay: ADP-Glo Kinase Assay, inhibition activity on IKKε. In kind it is biochemical. A digest of the protocol:
(§1)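 In 40 mM Tris pH 7.5 with 20 mM MgCl2 and 0.1 mg/mL BSA, each enzyme (IKKε or TBK1 kinase system) was run according to the manufacturer's protocol. ADP formed was detected by ADP-Glo luminescence.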

The next assay addresses T2, TBK1 (Homo sapiens, UniProt Q9UHD2).
T2 construct: purchased Promega (Invitrogen is also named in the same bracket) V4158; PR8031B; V3991 (not assigned to the two kinases)
T2 sequence (Q9UHD2 1-729): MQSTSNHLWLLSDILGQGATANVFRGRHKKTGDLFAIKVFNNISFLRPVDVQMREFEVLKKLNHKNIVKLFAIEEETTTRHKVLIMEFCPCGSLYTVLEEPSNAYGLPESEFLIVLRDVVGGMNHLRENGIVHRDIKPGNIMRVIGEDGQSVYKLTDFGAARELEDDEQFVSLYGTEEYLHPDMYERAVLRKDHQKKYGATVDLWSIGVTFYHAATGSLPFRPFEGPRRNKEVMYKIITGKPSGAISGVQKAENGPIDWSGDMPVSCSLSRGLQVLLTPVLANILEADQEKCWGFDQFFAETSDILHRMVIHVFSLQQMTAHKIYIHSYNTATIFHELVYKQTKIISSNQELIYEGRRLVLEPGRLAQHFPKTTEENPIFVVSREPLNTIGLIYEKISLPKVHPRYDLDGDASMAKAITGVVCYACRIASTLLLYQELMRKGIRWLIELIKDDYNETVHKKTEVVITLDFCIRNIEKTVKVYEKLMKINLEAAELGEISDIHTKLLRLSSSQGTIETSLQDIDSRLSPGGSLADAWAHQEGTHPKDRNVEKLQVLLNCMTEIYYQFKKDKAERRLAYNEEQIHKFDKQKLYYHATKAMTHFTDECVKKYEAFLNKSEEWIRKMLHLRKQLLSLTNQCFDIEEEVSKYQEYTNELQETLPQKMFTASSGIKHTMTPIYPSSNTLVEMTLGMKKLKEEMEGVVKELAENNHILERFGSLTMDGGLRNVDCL
In words: ADP-Glo Kinase Assay, inhibition activity on TBK1. The class given is biochemical. A digest of the protocol: as §1

`CC1C=C(c2c[nH]c3ncc(-c4ccc(CN5CCN(C)CC5)cc4)cc23)CCN1C(=O)NC1CCC1` (stereo not drawn) [Example 99, N-cyclobutyl-2-methyl-4-(5-(4-((4-methylpiperazin-1-yl)methyl)phenyl)-1H-pyrrolo[2,3-b]pyridin-3-yl)-5,6-dihydropyridine-1(2H)-carboxamide]: the half-maximal inhibitory concentration (IC50) against IKKε stood at 64 nM; on TBK1, 28 nM.

In the case of `CC1C=C(c2c[nH]c3ncc(-c4ccc(CN5CCN(C)CC5)s4)cc23)CCN1C(=O)NC1CCC1` (stereo not drawn) [Example 100, N-cyclobutyl-2-methyl-4-(5-(5-((4-methylpiperazin-1-yl)methyl)thiophen-2-yl)-1H-pyrrolo[2,3-b]pyridin-3-yl)-5,6-dihydropyridine-1(2H)-carboxamide], the IC50 was 35 nM on IKKε and 5.6 nM against TBK1.

As to `CC1C=C(c2c[nH]c3ncc(-c4ccc(CN5CCOCC5)s4)cc23)CCN1C(=O)NC1CCC1` (stereo not drawn) [Example 101, N-cyclobutyl-2-methyl-4-(5-(5-(morpholinomethyl)thiophen-2-yl)-1H-pyrrolo[2,3-b]pyridin-3-yl)-5,6-dihydropyridine-1(2H)-carboxamide], the IC50 at IKKε was found to be 29 nM; against TBK1 it was 10 nM.

In the case of `CC1C=C(c2c[nH]c3ncc(-c4ccc(CN5CCN(C)CC5)s4)cc23)CCN1C(=O)NC1CCCC1` (stereo not drawn) [Example 102, N-cyclopentyl-2-methyl-4-(5-(5-((4-methylpiperazin-1-yl)methyl)thiophen-2-yl)-1H-pyrrolo[2,3-b]pyridin-3-yl)-5,6-dihydropyridine-1(2H)-carboxamide], the IC50 against IKKε is 13 nM; against TBK1 it was 4.4 nM.

As to `CC1CC(c2c[nH]c3ncc(-c4ccc(CN5CCN(C)CC5)s4)cc23)=CCN1C(=O)NC1CCCC1` (stereo not drawn) [Example 103, N-cyclopentyl-6-methyl-4-(5-(5-((4-methylpiperazin-1-yl)methyl)thiophen-2-yl)-1H-pyrrolo[2,3-b]pyridin-3-yl)-5,6-dihydropyridine-1(2H)-carboxamide], the values for the IC50 against IKKε and at TBK1 were 150 nM and 58 nM, respectively.

Take `CC1CC(c2c[nH]c3ncc(-c4ccc(CN5CCOCC5)s4)cc23)=CCN1C(=O)NC1CCCC1` (stereo not drawn) [Example 104, N-cyclopentyl-6-methyl-4-(5-(5-(morpholinomethyl)thiophen-2-yl)-1H-pyrrolo[2,3-b]pyridin-3-yl)-5,6-dihydropyridine-1(2H)-carboxamide]: the IC50 on IKKε worked out at 190 nM; against TBK1 it was 110 nM.

With `CC1C=C(c2c[nH]c3ncc(-c4ccc(S(C)(=O)=O)cc4)cc23)CCN1C(=O)NC1CCCC1` (stereo not drawn) [Example 105, N-cyclopentyl-2-methyl-4-(5-(4-(methylsulfonyl)phenyl)-1H-pyrrolo[2,3-b]pyridin-3-yl)-5,6-dihydropyridine-1(2H)-carboxamide], the IC50 on IKKε stood at 22 nM; on TBK1 it was 25 nM.

On to `CC1C=C(c2c[nH]c3ncc(-c4ccc(CN5CCOCC5)s4)cc23)CCN1C(=O)NC1CCCC1` (stereo not drawn) [Example 106, N-cyclopentyl-2-methyl-4-(5-(5-(morpholinomethyl)thiophen-2-yl)-1H-pyrrolo[2,3-b]pyridin-3-yl)-5,6-dihydropyridine-1(2H)-carboxamide], for which the figures for the IC50 against IKKε and against TBK1 were 4.7 nM and 3.1 nM, respectively.

Take `COc1ccc(-c2cnc3[nH]cc(C4=CC(C)N(C(=O)NC5CCCC5)CC4)c3c2)cc1OC` (stereo not drawn) [Example 108, N-cyclopentyl-4-(5-(3,4-dimethoxyphenyl)-1H-pyrrolo[2,3-b]pyridin-3-yl)-2-methyl-5,6-dihydropyridine-1(2H)-carboxamide]: the IC50 at IKKε is 29 nM; on TBK1, 23 nM.

Regarding `CCC1C=C(c2c[nH]c3ncc(-c4ccc(CN5CCOCC5)s4)cc23)CCN1C(=O)NC(C)C` (stereo not drawn) [Example 109, 2-Ethyl-N-isopropyl-4-(5-(5-(morpholinomethyl)thiophen-2-yl)-1H-pyrrolo[2,3-b]pyridin-3-yl)-5,6-dihydropyridine-1(2H)-carboxamide], the IC50 at IKKε was 390 nM; on TBK1, 220 nM.

As for `CCC1CC(c2c[nH]c3ncc(-c4ccc(CN5CCOCC5)s4)cc23)=CCN1C(=O)NC(C)C` (stereo not drawn) [Example 110, 6-Ethyl-N-isopropyl-4-(5-(5-(morpholinomethyl)thiophen-2-yl)-1H-pyrrolo[2,3-b]pyridin-3-yl)-5,6-dihydropyridine-1(2H)-carboxamide], the IC50 against IKKε turned out to be 43 nM; at TBK1, 31 nM.

With `CCC1C=C(c2c[nH]c3ncc(-c4ccc(CN5CCN(C)CC5)s4)cc23)CCN1C(=O)NC(C)C` (stereo not drawn) [Example 111, 2-Ethyl-N-isopropyl-4-(5-(5-((4-methylpiperazin-1-yl)methyl)thiophen-2-yl)-1H-pyrrolo[2,3-b]pyridin-3-yl)-5,6-dihydropyridine-1(2H)-carboxamide], the IC50 was 77 nM on IKKε and 18 nM on TBK1.

Consider `CCC1C=C(c2c[nH]c3ncc(-c4ccc(CN5CCOCC5)cc4)cc23)CCN1C(=O)NC(C)C` (stereo not drawn) [Example 112, 6-Ethyl-N-isopropyl-4-(5-(4-(morpholinomethyl)phenyl)-1H-pyrrolo[2,3-b]pyridin-3-yl)-3,6-dihydropyridine-1(2H)-carboxamide], for which the IC50 came to 62 nM against IKKε and 56 nM against TBK1.

For the compound `CCC1C=C(c2c[nH]c3ncc(-c4ccc(C(=O)N5CCN(C)CC5)cc4)cc23)CCN1C(=O)NC(C)C` (stereo not drawn) [Example 113, 6-Ethyl-N-isopropyl-4-(5-(4-(4-methylpiperazine-1-carbonyl)phenyl)-1H-pyrrolo[2,3-b]pyridin-3-yl)-3,6-dihydropyridine-1(2H)-carboxamide], the IC50 worked out at 46 nM against IKKε and 18 nM on TBK1.

As for `CC(C)NC(=O)N1CCC(c2c[nH]c3ncc(-c4ccc(CN5CCOCC5)s4)cc23)=CC1(C)C` [Example 114, N-isopropyl-2,2-dimethyl-4-(5-(5-(morpholinomethyl)thiophen-2-yl)-1H-pyrrolo[2,3-b]pyridin-3-yl)-5,6-dihydropyridine-1(2H)-carboxamide], the IC50 on IKKε was 8 nM; against TBK1, 5.9 nM.

Turning to `CC(C)NC(=O)N1C(C)C=C(c2c[nH]c3ncc(-c4ccc(CN5CCOCC5)s4)cc23)CC1C` (stereo not drawn) [Example 115, N-isopropyl-2,6-dimethyl-4-(5-(5-(morpholinomethyl)thiophen-2-yl)-1H-pyrrolo[2,3-b]pyridin-3-yl)-3,6-dihydropyridine-1(2H)-carboxamide], the figures for the IC50 against IKKε and at TBK1 were 430 nM and 360 nM, respectively.

Consider `CC1C=C(c2c[nH]c3ncc(-c4ccc(CN5CCOCC5)s4)cc23)CC(C)N1C(=O)NC1CCCC1` (stereo not drawn) [Example 116, N-cyclopentyl-2,6-dimethyl-4-(5-(5-(morpholinomethyl)thiophen-2-yl)-1H-pyrrolo[2,3-b]pyridin-3-yl)-3,6-dihydropyridine-1(2H)-carboxamide], for which the half-inhibitory concentration (IC50) on IKKε stood at 1520 nM; on TBK1, 1280 nM.

For `CC(C)NC(=O)N1C2C=C(c3c[nH]c4ncc(-c5ccc(CN6CCOCC6)s5)cc34)CC1CC2` (stereo not drawn) [Example 117, N-isopropyl-3-(5-(5-(morpholinomethyl)thiophen-2-yl)-1H-pyrrolo[2,3-b]pyridin-3-yl)-8-azabicyclo[3.2.1]oct-3-ene-8-carboxamide], the IC50 is 4790 nM at IKKε and 2700 nM against TBK1.
